What was measured:
Experiment in all cases: relative viability (nuclei count vs DMSO), 5 days (fraction); higher = more cells survive
BGJ398 + Lapatinib = compound: CCN1CCN(c2ccc(Nc3cc(N(C)C(=O)Nc4c(Cl)c(OC)cc(OC)c4Cl)ncn3)cc2)CC1 [BGJ398] + CS(=O)(=O)CCNCc1ccc(-c2ccc3ncnc(Nc4ccc(OCc5cccc(F)c5)c(Cl)c4)c3c2)o1 [Lapatinib] (partner 2 µM)
Outline: (§1)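 Values are medians from duplicate plates. Each reflects relative viability, defined as the nuclei count of treated wells over that of vehicle wells. Lung cancer cell lines in 1536-well plates were pin-tool dosed one day after seeding with one drug alone or with a fixed anchor-drug dose plus five library-drug doses (not always all listed) in √10 steps, then fixed, stained and imaged at 4× after 5 days.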

BGJ398 + Navitoclax = compound: CCN1CCN(c2ccc(Nc3cc(N(C)C(=O)Nc4c(Cl)c(OC)cc(OC)c4Cl)ncn3)cc2)CC1 [BGJ398] + CC1(C)CCC(c2ccc(Cl)cc2)=C(CN2CCN(c3ccc(C(=O)NS(=O)(=O)c4ccc(N[C@H](CCN5CCOCC5)CSc5ccccc5)c(S(=O)(=O)C(F)(F)F)c4)cc3)CC2)C1 [Navitoclax] (partner 0.5 µM)
Outline: as §1

BGJ398 + Palbociclib = compound: CCN1CCN(c2ccc(Nc3cc(N(C)C(=O)Nc4c(Cl)c(OC)cc(OC)c4Cl)ncn3)cc2)CC1 [BGJ398] + CC(=O)c1c(C)c2cnc(Nc3ccc(N4CCNCC4)cn3)nc2n(C2CCCC2)c1=O [Palbociclib] (partner 0.5 µM)
Outline: as §1

[1] = compound: C1=CC2=NC=CN=C2C=C1/C=C/3\C(=O)NC(=O)S3 + O=C(c1cc(Cc2n[nH]c(=O)c3ccccc23)ccc1F)N1CCN(C(=O)C2CC2)CC1 [Olaparib] (partner 8 µM)
Outline: as §1

UMC-11
relative viability (BGJ398 + Lapatinib; first compound 0.01 µM): 1.14
relative viability (BGJ398 + Lapatinib; first compound 0.03162 µM): 0.987
relative viability (BGJ398 + Lapatinib; first compound 0.1 µM): 0.991
relative viability (BGJ398 + Lapatinib; first compound 0.3162 µM): 0.924
relative viability (BGJ398 + Lapatinib; first compound 1 µM): 0.736
relative viability (BGJ398 + Navitoclax; first compound 0.01 µM): 0.343
relative viability (BGJ398 + Navitoclax; first compound 0.03162 µM): 0.336
relative viability (BGJ398 + Navitoclax; first compound 0.1 µM): 0.314
relative viability (BGJ398 + Navitoclax; first compound 0.3162 µM): 0.382
relative viability (BGJ398 + Navitoclax; first compound 1 µM): 0.307
relative viability (BGJ398 + Palbociclib; first compound 0.01 µM): 0.327
relative viability (BGJ398 + Palbociclib; first compound 0.03162 µM): 0.276
relative viability (BGJ398 + Palbociclib; first compound 0.1 µM): 0.36
relative viability (BGJ398 + Palbociclib; first compound 0.3162 µM): 0.374
relative viability (BGJ398 + Palbociclib; first compound 1 µM): 0.351
relative viability ([1]; first compound 0.02 µM): 0.336
relative viability ([1]; first compound 0.06325 µM): 0.423
relative viability ([1]; first compound 0.2 µM): 0.391
relative viability ([1]; first compound 0.6325 µM): 0.336
relative viability ([1]; first compound 2 µM): 0.379

— the supplement of paper PMC10307832
